Test results from US20050142067A1, “Zintrodes, multitrodes and uses thereof” (priority 2003, published 2005).
“Also recorded” adds a separate entry of the source. Like-named read-outs stand apart in the source and are kept apart here.

How the values were obtained:
[1] = cited from earlier work
[2] = Fluorescence response to zinc of dye in micropolymer spots on glass slides; settings: dye in polymer on glass slide, HEPES pH ˜7.4, 500 μM Zn^2+
Method: A proprietary micropolymer was obtained from Gary Kiefer of DOW. Two fluorescence sensors were mixed individually with the micropolymer. One was TFLZN which has a Kd of 10 μM for binding zinc and which is strongly hydrophilic. The other was ZP1, which is more lipophilic, binds zinc with a Kd of 0.5 nM, and is very bright with a quantum yield of 0.9. After mixing, the two solutions were spotted onto acid-cleaned glass slides in spots of 2.5 and 10.0 μL and allowed to cure overnight.
To evaluate the coatings, one microliter of HEPES (50 mM, pH ˜7.4) was put onto one spot on the polymer/probe coatings and a second spot with one microliter of the same HEPES plus 1 microliter of ZnSO4 (final [Zn^2+], 500 μM) was put next to the first spot. Images of the both spots were captured using the exact same camera settings for both spots. […] When the actual fluorescent intensity of the spots was measured using Photoshop, it was observed that the zinc-added spot was from 4-5-fold brighter that the HEPES spot. […] The change in fluorescence was not timed, but in this microscope-measuring system, the change appeared essentially instantaneously, i.e., within the few seconds it took to put the slide back in place, re-focus the microscope, and capture the second image. […] Furthermore, washing the spots with pure HEPES again lowered the fluorescence back to essentially the pre-zinc levels. […]

[3] = read-out: Kd for binding zinc; cited from earlier work
holoCA = holoCA (Homo sapiens, UniProt P00918); experiment: Binding of fluorescent reporter to holoCA; settings: order of magnitude in words
Method: The measurement is based on a literature method (44, 51). Aliquots of a 1 μM solution of the CA protein are mixed with several concentrations of DPSA, ranging from 1 nM to 10 μM. After 30 minutes of incubation, the fluorescence emission spectrum is measured with excitation at 365 nm and emission at 400-700 nm. Taking the intensity at 560 nm, which is the emission max of an apoCA-DPSA conjugate, at the highest concentration aliquot to represent 99% fractional saturation, and 1% at the lowest concentration aliquot, the fractional saturation is plotted as a function of the DPSA concentration on a logarithmic scale, and the data is fit to a single binding isotherm, e.g. fraction bound=KD/(1+KD) using Kaleidagraph (Synergy Software), or a similar program.
Because of the nature of the sulfonamide binding as a fourth ligand to the active site, DPSA binds as a 1:1 complex at realistic aliquot concentrations. If the fractional saturation is not near 1.0 at higher DPSA concentration because the DPSA binds more weakly to the variant, the curvature of the isotherm will not reach the peak intensity.

CA-Zn (holoCA) = CA-Zn (holoCA) (Homo sapiens, UniProt P00918); experiment: Screening of fluorescent reporters with CA and zinc (fluorescence intensity)
Method: (§1) Stock solutions of the fluorescent reporter were prepared in alcohol and diluted 1000-fold in the final measuring cuvette. Carbonic anhydrase protein (CA) was “apo-ized” as per a standard procedure (50). Zinc was added to a solution of the CA in the presence of the reporter and the change in fluorescence intensity and wavelength of the reporter were measured on a Spex DM-1B fluorescence spectrophotometer using He—Cd laser excitation.

[4] = Spectral characteristics of reporters for CA-based zinc biosensor; assay type: physicochemical
Method: as §1

[5] = Leakage of reporter through microdialysis membrane; assay type: physicochemical; settings: microdialysis chamber (sock), HEPES external medium
Method: A solution of DPSA was placed in the “sock” and the fluorescence of DPSA inside the dialysis chamber and in the external HEPES buffer solution was measured (FIG. 4A). The chamber was then filled with 10 μM apoCA and the external solution with […] HEPES buffer and 10 μM free zinc (FIG. 4B). Since the microdialysis membrane is impermeable to apoCA, any zinc that passes through the membrane is then trapped inside upon binding to apoCA. […] For example, if free zinc in the biological medium is 2 nM, then 0.90 nM zinc will be trapped within the “sock.”
However, DNSA “leaks out” of the membrane. DNSA reporter was covalently bound to amino-CPG beads using a 12 C or a 14 C tether and placed into the microdialysis membrane or “sock”. […] The DNSA-CPG bead system comprises a “molecular tether” means of entrapment (FIG. 7).

rabbit brain = settings: 1 mM in dialysis fluid, 10 minutes infusion, anesthetized rabbits, dorsal hippocampus
Method: The microdialysis probes were aimed at the dorsal hippocampus in two acutely prepared rabbits, as described above, and the rabbits were anesthetized with isofluorane.
This caused spermine NONOate to release NO*, some of which presumably passed through the dialysis membrane and into the brain as a reverse dialysis procedure. The infusion lasted 10 minutes.

[6] = pZn meter calibration with metal buffer (ZP1); assay type: binding; settings: 50 μM bicine metal buffer, [ZP1]=100 nM; read-out: KD, fluorescence intensity midpoint
Method: In calibrating the pZn meter using a metal buffer to control free zinc (FIG. 16A), the [ZP1] is <<than the effective [Zn2+ free] because the metal buffer, 50 μM bicine, can supply a large total number of Zn ions, while keeping the concentration of zinc ions fixed. Thus, in this calibration, the fluorescence intensity midpoint is approximately equal to the KD, 0.5 nM where [ZP1]=100 nM. In a second calibration, a ZP1 concentration of 20 nM of zinc, as ZnSO4, is used (FIG. 16B). Because no metal buffer is used and because the ZP1 concentration is much higher than the zinc concentration, this is a stoichiometric or “percent occupancy” titiration in which the fluorescence intensity is simply proportional to the molar ratio, [Zn]:[ZP1}.

| binding to holoCA (holoCA) | increase of fluorescent yield upon binding to holo-CA (CA-Zn (holoCA)) [fold] | Abs max [4] [nm] | Emm max [4] [nm] | Molar ε [4] | Structure (SMILES) | quantum yield ([1]; after zinc binding) | quantum yield ([1]; before zinc binding) | fluorescence of zinc-added spot versus HEPES spot [2] | Kd [3] [nM] | leakage out of microdialysis membrane [5] | also measured |
| --- | --- | --- | --- | --- | --- | --- | --- | --- | --- | --- | --- |
| – | – | – | – | – | O=C(O)c1ccccc1-c1c2cc(Cl)c(=O)cc-2oc2c(CNc3ccccc3CN(Cc3ccccn3)Cc3ccccn3)c(O)ccc12 [ZP4, 9-(o-carboxyphenyl)-2-chloro-5-[2-{bis(2-pyridylmethyl)aminomethyl}-N-methylaniline]-6-hydroxy-3-xanthanone] | about 0.34 | about 0.06 | – | – | – | pKa value ([1]; relative to Zinpyr 1 and Zinpyr 2): lower |
| – | – | – | – | – | COc1cc(NS(=O)(=O)c2ccc(C(=O)O)cc2)c2nc(C)ccc2c1 [TFLZN] | – | – | ~15 fold | 10000 | – | – |
| low micromole | 6 | 332 | 560 | 4.7 × 10^3 cm^−1M^−1 | CN(C)c1cccc2c(S(N)(=O)=O)cccc12 [DNSA, dansylamide] | – | – | – | – | leaks out | – |
| low picomole | 20 | 355 | 605 | 2.2 × 10^4 cm^−1M^−1 | CN(C)c1ccc(-c2cnc(-c3ccc(S(N)(=O)=O)cc3)o2)cc1 [DPSA, dapoxylsulfonamide] | – | – | – | – | membrane impermeable; also recorded: does not leak out | fluorescence intensity (CA-Zn (holoCA); 1 μM DPSA, alone or with the named CA): 70 units; absorption λmax [4]: 340 nm |
| – | – | – | – | – | NCCCNCCCCN(CCCN)/[N+]([O-])=N/O [spermine NONOate] | – | – | – | – | – | release of free zinc into dialysate (rabbit brain): vigorous release of free zinc |
| – | – | – | – | – | O=C(O)c1ccccc1-c1c2cc(Cl)c(=O)c(CN(Cc3ccccn3)Cc3ccccn3)c-2oc2c(CN(Cc3ccccn3)Cc3ccccn3)c(O)c(Cl)cc12 [ZP1, 9-(o-carboxyphenyl)-2,7-dichloro-4,5-bis[bis(2-pyridylmethyl)-aminomethyl]-6-hydroxy-3-xanthanone] | about 0.87 | about 0.39 | 4-5 fold | 0.5 | – | Kd [6]: ~0.5 nM; quantum yield ([1]; condition not stated): 0.9; excitation wavelength maximum ([1]; without zinc): 515 nm; excitation wavelength maximum ([1]; zinc bound): 507 nm |
